US20120077761A1, “COMPOSITIONS AND METHODS FOR THE PREVENTION AND TREATMENT OF CORONARY HEART DISEASES” (Generex Pharmaceuticals, Inc, priority 2009, published 2012)

Legend:
[1] = tested on: ischemic zone of myocardium; assay: subclinical chronic coronary heart disease (cCHD) rat model (partial LAD ligation), neovascularization in ischemic zone; assay type: in vivo, Sprague-Dawley (SD) rats; details: for vascular density in treated ischemic hearts versus vehicle-treated hearts (FIG. 4): 2 weeks post ligation; for chronic ischemic heart histology, 2 weeks post LAD partial ligation (FIG. 4): compared with vehicle-treated hearts (C1)
Description: (§1) The subclinical cCHD rat model was produced as described. Briefly, male Sprague-Dawley (SD) rats, weighing 150-200 g, were used. Following proper anesthesia, left thoracotomy was performed on the animals. The pericardium was opened and a probe or surgical suture thread (11-0) was placed onto the epicardium along the LAD. […] The experimental rats with ST segment constantly depressed above 0.1 mV were selected and randomly divided into two groups. […] The rats in vehicle-treated group (n=6) were treated with equivalent period and amount of H2O. For the sham operation group (n=6), left thoracotomy was performed and the pericardium was opened but with no LAD ligation.
Measurement of neovascularization in the ischemic zone. Left ventricles from the rats sacrificed on day 14 post-ligation were removed and sliced from apex to base in 3 transverse slices. The slices were fixed in formalin and embedded in paraffin. Vascular density was determined on the histology section samples by counting the number of vessels within the ischemic zone using a light microscope under a high power field (HPF) (40×). Eight random and non-overlapping HPFs within the ischemic field were used for counting all the vessels in each section. The number of vessels in each HPF was averaged and expressed as the number of vessels per HPF. Vascular counts were performed by two investigators in a blind fashion.
The capillary density in the ischemic zone of the angioenhancin treated myocardium was on average 12 capillaries (12±3.8) filled with blood cells per HPF, calculated from 8 randomly selected view fields on each of the 3 slides from 6 angioenhancin treated hearts on day 14.

ischemic hearts = assay: echocardiography assessment of heart function in cCHD rats; assay type: in vivo, SD rats; details: 5 mg/kg, echocardiography day 2, 7 and 14, progressively lowered in vehicle treated rats
Description: as §1
Echocardiography Assessment of Heart Function. In all, 12 SD rats received baseline echocardiography before any experimental procedures. Echocardiography was recorded under controlled anesthesia using a Toshiba Aplio XG Echocardiography with PLT-1202S linear array transducer S10-MHz phased-array transducer. M-mode tracing and 2-dimensional (2D) echocardiography images were recorded from the parasternal long- and short-axis views. Short axis view was at the papillary muscles level. Left ventricular end-systolic and end-diastolic dimensions, as well as systolic and diastolic wall thickness, were measured from the M-mode tracings by using the leading-edge convention of the American Society of Echocardiography. For each M-mode measurement, at least three consecutive cardiac cycles were sampled. All rats in both groups received echocardiography measurements on day 2, 7 and 14 post ligation.

infarcted hearts = assay: myocardial infarction rat model (permanent LAD ligation), neovascularization in infarct zone; assay type: in vivo, Sprague-Dawley rats; details: vehicle-treated: mainly fibrosis
Description: Myocardial infarction (MI) animal model was induced in male Sprague-Dawley rats (300-350 g) by permanent ligation of the left anterior descending (LAD) coronary artery. The experimental rats were anesthetized with intraperitoneal pentobarbital (50 mg/kg), intubated, and mechanically ventilated with room air. The angioenhancin compound of formula I or formula II (2 mg/kg), dissolved in water (0.5 ml), was orally administrated to MI rats (n=6) for one day post ligation, daily for two weeks with equivalent amount of water to the vehicle-treated rats (n=6). For sham-operated rats (n=5), thoracotomy was performed without ligation. Animals were sacrificed after final echocardiography measurements.
Evaluation of neovascularization in infarcted hearts. Echocardiography was recorded on day 7 and 14 post operations. The hearts of the sacrificed rats were removed and washed with PBS. For histological studies, the left ventricles of the experimental rats were removed and cut from apex-to-base in 3 transverse slices and embedded in paraffin. To quantify the density of capillaries in infarct zones, the vessels were counted and averaged in 6 randomly selected high power view fields (HPF, 40×) on each section. Blinded capillary counts were performed on 6 hearts per group by two investigators. The results were expressed as mean±SD capillaries per HPF.

[2] = tested on: human aorta endothelial cells (HAEC); assay: capillary-like tube formation of human aorta endothelial cells on fibrin matrix; details: for Approx. No. of Tubes: HAEC on fibrin matrix, Ctrl 9; for Approx. No. of Tubes / capillary-like networks compared to vehicle-treated cells: 22 hours; for capillary-like networks compared to vehicle-treated cells: HAEC
Description: Cells were incubated at 37° C. and equilibrated in 95% air-5% CO2. Fibrin matrices were prepared by polymerization of fibrinogen solution (5 mg fibrinogen/ml serum-free medium) using low concentrations of α-thrombin (2.5 U/ml). After polymerization, gels were soaked in culture medium containing 10% FBS for 2 h at 37° C. to inactivate the thrombin. HAEC were seeded on the surface of the three-dimensional matrix in 96-well plates in Ham's F-12 medium and cultured for 22 hours with different concentrations of angioenhancin compounds of formula I and formula II in a growth medium. Non-treated control was added with equivalent amount of growth medium. Images were captured and the angiogenic properties were determined by calculating the total number of tubes formed.

VEGF, VEGFR, EGF and FGF = assay: RT-PCR of angiogenesis-associated genes in treated heart tissues and endothelial cells; assay type: in vivo
[3] = tested on: human umbilical vein endothelial cells (HUVEC); assay: differentiation of human umbilical vein endothelial cells (HUVEC); assay type: cell-based; details: for differentiation of HUVEC, dose dependence: versus vehicle treated cells (proliferation, no differentiation)
Text: FIG. 2. illustrates a series of micrographs showing differentiation of vessel endothelial cells (HUVEC) induced by angioenhancin compounds of formula I and II. Panels a & b represent the vehicle treated cells showing proliferation but no sign of differentiation.

Molecule	vascular density in treated ischemic hearts versus vehicle-treated hearts (FIG. 4) [1]	chronic ischemic heart histology, 2 weeks post LAD partial ligation (FIG. 4) [1]	left ventricle ejection fraction (LVEF) (ischemic hearts)	left ventricle fraction shortening (LVFS) (ischemic hearts)	infarcted region histology, 2 weeks post LAD ligation (FIG. 4) (infarcted hearts)	Approx. No. of Tubes ([2]; 5 μg/ml)	Approx. No. of Tubes ([2]; 10 μg/ml)	Approx. No. of Tubes ([2]; 20 μg/ml)	growth of capillary-like tubes versus non-treated control (FIG. 3) ([2]; HAEC passage 7, 22 hours, concentration not given)	capillary-like networks compared to vehicle-treated cells [2]	expressions of angiogenesis-associated genes (VEGF, VEGFR, EGF and FGF), RT-PCR (VEGF, VEGFR, EGF and FGF)	differentiation of HUVEC (cell phenotype, FIG. 2) ([3]; 10 μg/ml)	differentiation of HUVEC (cell phenotype, FIG. 2) ([3]; 20 μg/ml)	differentiation of HUVEC (cell phenotype, FIG. 2) ([3]; 40 μg/ml)	differentiation of HUVEC, dose dependence [3]	growth of capillary-like tube structures versus non-treated control (FIG. 3) ([2]; 5 μg/ml, HAEC passage 7, 22 hours)
O=C(OC1OC2COC(=O)c3cc(O)c(O)c(O)c3-c3c(cc(O)c(O)c3O)C(=O)OC2C2OC(=O)c3cc(O)c(O)c(O)c3-c3c(cc(O)c(O)c3O)C(=O)OC12)c1cc(O)c(O)c(O)c1 (centres unmarked) [Formula II, Potentillin]	higher	more blood vessels	progressively restored	progressively restored	many newly formed vessels filled with red blood cells observed	~67	~46	~45	enhanced growth of capillary-like tubes more than that in non-treated control, but less than that in angioenhancin-I treated	formed more capillary-like networks	up-regulated	refractive and elongated cells	thin and elongated phenotype with the typical characteristic of differentiation of vessel endothelial cells	thin, elongated and circled phenotype forming tube-like structures	enhanced differentiation of HUVEC in a dose dependent manner	–
pedunculagin [Formula I]	higher	more blood vessels	progressively restored	progressively restored	Many newly formed collateral vessels filled with red blood cells were found	~45	~57	~68	–	formed more capillary-like networks	up-regulated	–	enhanced differentiation showing thin and elongated cells	thin and elongated phenotype forming tube-like structures	enhanced differentiation of HUVEC in a dose dependent manner	enhanced growth of capillary-like tube structures much more than that in non-treated control
